The values that follow come from patent US20020193425A1, “Cancer chemopreventative compounds and compositions and methods of treating cancers” (priority 2001, published 2002).

Values after ≈ are worked out from the molar mass of the structure shown.

Data set [1] can be described thus: Cytotoxicity, viability by Trypan blue exclusion. Conditions: human, HL-60 cells, Cytotoxicity (IC50, ng/ml), four days.
Description: (§8) HL-60, K562, U937, Reh and Daudi cells were obtained from the American Type Culture Collection (Rockville, Md.). Kasumi-1, NB4, BV173, SUPB13, and RS4;11 cells were provided by the Section of Hematology/Oncology, University of Illinois College of Medicine, Chicago, Ill. All cell lines were maintained in suspension culture using RPMI 1640 medium supplemented with 10% heat-inactivated fetal bovine serum, 100 units of penicillin/ml and 100 μg of streptomycin/ml at 37° C. in a humidified atmosphere of 5% CO2 in air. All cells were routinely tested for mycoplasma contamination.
(§9) Cellular viability was monitored by Trypan blue exclusion. Inhibition of [3H]thymidine incorporation into DNA was determined to assess the level of cell proliferation as well as DNA synthesis inhibition. […] The filters were counted using a Microbeta™ liquid scintillation counter (Wallac, Turku, Finland) with scintillation fluid. Finally, the percentage of [3H]thymidine incorporation per 10^6 cells was calculated by dividing the dpm of sample-treated cells by the dpm of DMSO-treated cells.
(§10) ^aViability was determined by Trypan blue exclusion in duplicate samples. […] Results are expressed as median inhibitory cell concentrations of two independent experiments (±standard deviations).
For data set [2], the system named is HL-60. In words: Cytotoxicity, viability by Trypan blue exclusion. Particulars: four days.
Description: as §8, §9, §10
The test system of another data set is HL-60 cells. In words: Membrane phenotype, cell surface antigen by flow cytometry. It is filed as cell-based, human. Conditions: Brusatol 25 ng/ml, 4-day protocol. As for the experimental part: (§1) Cell lines were tested using a 4-day incubation protocol, unless otherwise specified.
(§2) 3) Determination of cell surface antigen by flow cytometry. Cells (10^6) were washed with PBS and then incubated for 30 min at room temperature with respective monoclonal antibodies, washed with 20 volumes of diluent (PBS with 0.1% sodium azide and 1% BSA), and resuspended in 0.5 ml of fresh diluent for evaluation. Necrotic cells were excluded from the analysis by propidium iodide (PI) staining. The following mAbs (Sigma, St. Louis, Mo.) were used to assess the maturation level of myeloid cell lines: antiCD15 (Leu M1), antiCD-11b (OKM1), antiCD14 and antiCD13. The following mAbs (Sigma, St. Louis, Mo.) were used to assess the maturation level of lymphocytic cell lines: antiCD20, antiHLA-DR and antikappa light chain.
(§3) Cells were induced to differentiate with the indicated concentrations of brusatol using a 4-day protocol and then analyzed for membrane markers of differentiation as described under “Materials and methods”. Results are expressed as the specific mean fluorescence intensity (ratio of antigen antibody flourescence over isotype antibody fluorescence), and represents the mean of two independent studies.
(In flow cytometry, cells or beads pass a laser one at a time.)

The test system of the next data set is RS4,11. In words: Cell cycle effects, DNA content by flow cytometry. It is filed as cell-based. Particulars: Brusatol (25 ng/ml), 24 h. How it is done: (§4) About 10^6 cells from each sample were collected and washed twice with ice-cold PBS, fixed in 70% ethanol, and stored at 4° C. until analysis. The cells were stained with PI (50 μg/ml), treated with DNase-free RNase (10 μg/ml), and subjected to DNA content analysis using an EPICS Coulter flow cytometer. At least 10,000 cells were counted for each sample. The percentage of apoptotic cells was calculated by measuring the area under the sub-diploid (DNA <2 N) peak in the plot of cell number against cellular DNA content.
(§5) Cells were treated with solvent or brusatol (25 ng/ml) for 24 h, fixed in ethanol and stained with PI for flow cytometric analysis as described under “Materials and methods”. At least 10,000 cells were counted. Results are presented as the mean of triplicate samples (±standard deviation). G1=Gap1, S=Synthesis, G2/M=Gap2+Mitosis, Ap=sub-G1 apoptotic peak.

In data set [3] the test system is K562. In words: Cell cycle effects, DNA content by flow cytometry. It counts as cell-based. Particulars: Brusatol (25 ng/ml), 24 h. As for the experimental part:
as §4, §5

In data set [4] the test system is SUPB13. In words: Cell cycle effects, DNA content by flow cytometry. It is filed as cell-based. Conditions: Brusatol (25 ng/ml), 24 h. How it is done: as §4, §5
For data set [5], the system named is NB4. In words: Cell cycle effects, DNA content by flow cytometry. It counts as cell-based. Particulars: Brusatol (25 ng/ml), 24 h. How it is done:
as §4, §5

Data set [6] concerns Kasumi-1. In words: Cell cycle effects, DNA content by flow cytometry. Conditions: Brusatol (25 ng/ml), 24 h. It is filed as cell-based. How it is done: as §4, §5
The next data set relates to U937. In words: Cell cycle effects, DNA content by flow cytometry. It is filed as cell-based. Conditions: Brusatol (25 ng/ml), 24 h. As for the experimental part:
as §4, §5

Data set [7] relates to BV173. In words: Cell cycle effects, DNA content by flow cytometry. Particulars: Brusatol (25 ng/ml), 24 h. It counts as cell-based. As for the experimental part: as §4, §5
Another data set deals with Reh. In words: Cell cycle effects, DNA content by flow cytometry. It counts as cell-based. Conditions: Brusatol (25 ng/ml), 24 h. As for the experimental part:
as §4, §5

Data set [8] relates to K562. In words: NBT-reduction differentiation assay, leukemic panel. It is filed as cell-based. Particulars: 4 days. As for the experimental part: as §1
(§6) 2) NBT/NSE/SE. Evaluation of NBT reduction was used to assess the ability of sample-treated cells to produce superoxide when challenged with TPA. A 1:1 (v/v) mixture of a cell suspension (10^6 cells) and TPA/NBT solution (2 mg/ml NBT and 1 μg/ml TPA in phosphate buffer saline (PBS)) was incubated for 1 h at 37° C. Then, cells were smeared on glass slides, and counterstained with 0.3% (w/v) safranin O in methanol. Positive cells reduce NBT yielding intracellular black-blue formazan deposits. NSE/SE are monocytic/granulocytic esterases that can be visualized by cytochemical staining using commercially available kits (α-Naphthyl Acetate Esterase and Naphthol As-D Chloroacetate Esterase kits, Sigma Chemical Co., St. Louis, Mo.). Positive-stained cells were quantified by microscopic examination of >200 cells. Results were expressed as a percentage of positive cells.
(§7) Concentration-dependent effect of brusatol on: (a) NBT-reduction (monocyte/granulocyte marker) of HL-60, K562, NB4, U937, and BV173 and (b) NSE expression (monocyte marker) in K562, Kasumi-1, NB4, and BV173 cells, respectively. Data points are the mean of duplicate samples.

Data set [9] deals with BV173. In words: Membrane phenotype, cell surface antigen by flow cytometry. It is filed as cell-based. Particulars: 4-day protocol. As for the experimental part: as §1, §2, §3
The subject of data set [10] is HL-60. In words: Cell cycle effects, DNA content by flow cytometry. It counts as cell-based, human. Conditions: Brusatol (25 ng/ml), 24 h. How it is done:
as §4, §5

The test system of data set [11] is K562. In words: NSE expression (monocyte marker). It is filed as cell-based. Particulars: 4 days. How it is done:
as §1, §6, §7

The subject of data set [12] is NB4. In words: NSE expression (monocyte marker). It counts as cell-based. Particulars: 4 days. How it is done: as §1, §6, §7
For data set [13], the system named is Kasumi-1. In words: NSE expression (monocyte marker). Conditions: 4 days. It counts as cell-based. How it is done: as §1, §6, §7
The test system of data set [14] is BV173. In words: NSE expression (monocyte marker). Particulars: 4 days. It is filed as cell-based. As for the experimental part:
as §1, §6, §7

Data set [15] in a line: Cytotoxicity, viability by Trypan blue exclusion. Conditions: human, SUPB13 cells, Cytotoxicity (IC50, ng/ml), four days.
Description: (§11) All cell lines were maintained in suspension culture using RPMI 1640 medium supplemented with 10% heat-inactivated fetal bovine serum, 100 units of penicillin/ml and 100 μg of streptomycin/ml at 37° C. in a humidified atmosphere of 5% CO2 in air.
(§12) Cellular viability was monitored by Trypan blue exclusion.
as §10
In data set [16] the test system is SUPB13. In words: Cytotoxicity, viability by Trypan blue exclusion. Conditions: four days.
Description: as §11, §12, §10
The subject of data set [17] is BV173. In words: Cytotoxicity, viability by Trypan blue exclusion. Particulars: four days.
Description: as §8, §9, §10
A short description of a further data set: in vitro. Conditions: human.

Description for in vitro: Human blood (20 ml) was collected in heparinized sterile tubes and white blood cells were separated using Ficoll reagent (8 ml/5 ml blood diluted in 15 ml Hank's buffered solution). After centrifugation at low speed (1500 rpm) for 30 min, the white coat was removed and washed 3-times with Hank's buffered solution. The cell pellet was resuspended in RPMI 1640 medium supplemented with 10% FBS. This preparation contained >90% lymphocytes and <5% monocytes, as determined by Wright-Giemsa staining.
as §12, §10

Turning to `COC(=O)[C@@]12OC[C@]34[C@H]([C@@H](O)[C@@H]1O)[C@@]1(C)CC(=O)C(O)=C(C)[C@@H]1C[C@H]3OC(=O)[C@H](OC(=O)C=C(C)C)[C@@H]24` [compound 1, brusatol], the IC50 at 4 days in [1] was 0.05 to 0.1 mg/L (≈ 0.0961 to 0.192 µM); in data set [15] it was below 0.025 mg/L. Besides, the “Cytotoxicity (IC50, ng/ml)” value in the data set with HL-60 [2] is 50 ± 0.9 ng/mL; in the data set with SUPB13 [16], 20 ± 1.2 ng/mL; in the data set on BV173 [17] (listed as Brusatol), 5 ± 1.4 ng/mL; in the data set with BV173 [17] (listed as brusatol), “less than 25 ng/ml”. Besides, in the data set with HL-60 cells, the “CD11b, specific mean fluorescence intensity” value worked out at 2.2 ± 0.5. For the same compound, in the data set on HL-60 cells, the “CD13, specific mean fluorescence intensity” value is recorded as 266.1 ± 55.7. Moreover, the “CD14, specific mean fluorescence intensity” value in the data set on HL-60 cells worked out at 1.0. Further, the “CD15, specific mean fluorescence intensity” value in the data set with HL-60 cells is listed as 177.1 ± 8.7. The G1 entry in the data set on RS4,11 is “G1 = 50.9 ± 0.4”; with K562 [3], “G1 = 46.2 ± 0.6”; in the data set with SUPB13 [4], “G1 = 61.9 ± 2.1”; in the data set on NB4 [5] it was “G1 = 45.3 ± 0.8”; in the data set with Kasumi-1 [6], “G1 = 77.4 ± 1.8”; with U937 it was “G1 = 45.4 ± 1.8”. Moreover, the G1 result is “G1 = 57.0 ± 0.4” in the data set with BV173 [7], “G1 = 78.8 ± 1.2” in the data set with Reh and “G1 = 68.7 ± 0.9” in the data set with HL-60 [10]. Further, the G2/M result with RS4,11 is on record as “G2/M = 3.4 ± 0.1”; in the data set on K562 [3] it was “G2/M = 5.6 ± 0.4”; with SUPB13 [4], “G2/M = 8.7 ± 0.3”; in the data set with NB4 [5], “G2/M = 7.3 ± 0.7”; in the data set on Kasumi-1 [6] it was “G2/M = 4.5 ± 0.2”; in the data set on U937, “G2/M = 8.0 ± 1.6”. Moreover, the G2/M result is recorded as “G2/M = 7.1 ± 0.1” in the data set on BV173 [7], “G2/M= 3.2 ± 0.4” in the data set on Reh and “G2/M = 18.3 ± 1.1” in the data set with HL-60 [10]. The S result was “S = 45.7 ± 0.2” with RS4,11; “S = 48.2 ± 0.3” in the data set on K562 [3]; “S = 29.4 ± 1.8” with SUPB13 [4]; “S = 47.4 ± 0.1” in the data set on NB4 [5]; “S = 18.1 ± 2.1” in the data set on Kasumi-1 [6]; “S = 46.6 ± 0.2” in the data set with U937. In addition, the S result was “S = 35.9 ± 0.6” in the data set on BV173 [7], “S = 18.0 ± 0.6” in the data set on Reh and “S = 13.0 ± 1.0” in the data set with HL-60 [10]. The entries for the “Ap (sub-G1 apoptotic peak)” value in the data set on NB4 [5] and with BV173 [7] were “Ap = 37.2 ± 0.8” and “Ap = 15.6 ± 0.2”, respectively. In the data set with K562 [8], the “NBT-reduction, peak induction” value came out at 75%. The “membrane markers of differentiation, change between control and treated cells” value in the data set with BV173 [9] is given as “did not show any changes”. Besides, the “upregulated expression of NSE” value in the data set on K562 [11] is listed as “approximately 50%”; in the data set on NB4 [12] it was “approximately 50%”; with Kasumi-1 [13] it was “approximately 50%”; in the data set on BV173 [14], “approximately 35%”.
As for `COC(=O)[C@@]12OC[C@]34[C@H]([C@@H](O)[C@@H]1O)[C@@]1(C)CC(=O)C(O)=C(C)[C@@H]1C[C@H]3OC(=O)[C@H](OC(=O)/C=C(\C)C(C)C)[C@@H]24` [compound 2, bruceantin], in “in vitro”, the IC50 at 3 days is above 0.05 mg/L.

The IC50 is the concentration needed to halve the response being measured.
